Tests used:
[1] = target: T1, Virion-associated NCp7 proteins from cell-free HIV-1MN (Human immunodeficiency virus type 1 group M subtype B, UniProt P05888); test: Virion NCp7 cross-linking (non-reducing Western blotting)
T1 construct: attack on the mature NCp7 retroviral zinc fingers in the cell-free virus; endogenous in cells
Method: The interaction of zinc finger inhibitors, such as the thiolesters of the invention, with cell-free virus can result in modification of intravirion NCp7 protein and loss of infectivity. Virion-associated NCp7 proteins from cell-free HIV-1MN were treated with thiolester compounds 44 and 45. They were also evaluated by non-reducing Western blotting using HIV-1 NCp7-specific antibodies. […] Cross-linking by compound 45 was due to formation of intermolecular disulfide bonds because reduction with 2-mercaptoethanol (β-ME) completely reversed the gel retardation.
Virion cross linking was performed as described by Rice (1995) Science 270:1194-1197 and Turpin (1997) Antiviral Chem. Chemother. 8:60-67. Briefly, highly purified HIV-1MN (11.8 μg total protein) was incubated for 2 hour with concentrations of compound. Virions were concentrated and residual compound was removed by centrifugation (18,000×g, 1 h, 4° C.). The viral pellet was solubilized in 0.5 M Tris-HCl, (pH 6.8), 50% glycerol, 8% SDS and 0.4% bromophenol blue and proteins resolved by Western blotting. Western blotting to detect the expression of HIV-1 proteins in U1 cells or virus pellets for virion cross-linking experiments was carried out as described by Turpin (1996) J. Virol. 70:6180-6189. Briefly, 50 μg of total cellular protein for U1 experiments or the. total virion pellet (11.8 μg total viral protein) for NCp7 cross linking studies was resolved on 4 to 20% polyacrylamide gels in SDS with Tris-Glycine (Novex, San Diego Calif.). Samples for reduced gels were boiled for 5 min in the presence of 5% β-ME prior to loading. Resolved proteins were electroblotted on to polyvinylidene difluoride (PVDF) membranes, and HIV-1 specific proteins were detected using a mixture of goat anti-HIV-1 NCp7 and p24 or anti-NCp7 for virion proteins alone (a kind gift of L. E. Henderson, AIDS Vaccine Program NCI-FCRDC, Frederick, Md.). Western blots were developed using standard chemiluminescence methodologies, as produced and described by Dupont-NEN, Wilmington, Del.
Purified concentrated retrovirus and antisera against the purified NC protein of the virus can be used to test the ability of a specific compound to penetrate the virus and react with the NC protein by forming disulfide complexes in the core of the virus. Compound are mixed with the whole retrovirus under reaction conditions appropriate for the compound. The virus is then removed from the reagent by centrifugation and disrupted in, e.g., standard SDS-PAGE sample buffer with (reduced) and without (non-reduced) 2-mercaptoethanol. The viral proteins are then separated by standard SDS-PAGE and the sample examined for the presence or absence of the monomeric zinc finger protein in the non-reduced sample. Depending upon the virus used in the experiment and the conditions of electrophoresis, the zinc finger protein can be visualized by protein staining methods, or by immuno-blot methods. Compounds which react with the zinc finger protein by attacking the zinc finger complexes and forming disulfide cross-linked products inactivate the virus. Thus, compounds of interest (i.e., those which cause cross-linking), including the thiolesters of the invention, reduce the amount of monomeric zinc finger protein detected.

HIV-1 virus = test: Virus inactivation by PCR assay of treated virions; format: cell-based
Description: The thiolester-treated virions can also be tested for infectivity. The virions are suspended in media (rather than solubilized) and added to target cells. The cultures are then examined to determine whether the virions are still active. To determine whether the treated virus particles are active, the cells are monitored for the presence of intracellularly-synthesized viral RNA using, for example, the polymerase chain reaction (PCR) (Rice (1993) Proc. Natl. Acad. Sci. USA 90:9721;Turpin (1996) J. Virol. 70:6180). Alternatively, cytoprotection assays can be used (Weislow (1993) J. Natl. Cancer Inst. 81:577).
An example of a compound which can be used as a control in the gel mobility shift assay is azodicarbonamide (ADA), a compound which is commercially available from the Aldrich Chemical Company (Milwaukee, Wis.).

Structure (SMILES)	intravirion NCp7 cross-linking (in words) [1]	inactivation of HIV-1 virus (in words) (HIV-1 virus)
Cc1cn([C@H]2C[C@H](N=[N+]=[N-])[C@@H](CO)O2)c(=O)[nH]c1=O [AZT, 3′-Azido-2′-3′-dideoxythymidine, reference compound]	failed to cross-link NCp7	
NC(=O)N=NC(N)=O [ADA, azodicarbonamide]		inactivates HIV-1 virus
